In PubChem BioAssay (NCI):
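Results reflect a 48-hour exposure of cells in 96-well plates to compound at five concentrations. TGI: concentration producing complete growth inhibition.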

What was measured:
Assay in all cases: DTP human tumour cell line panel, 48 h
[1] = system: A498 renal
[2] = system: BT-549 breast
[3] = system: HS 578T breast
[4] = system: IGROV1 ovarian
[5] = system: LOX IMVI melanoma
[6] = system: MCF7 breast
[7] = system: OVCAR-5 ovarian
[8] = system: RPMI-8226 leukemia
[9] = system: SF-268 CNS
[10] = system: SF-539 CNS
[11] = system: SK-OV-3 ovarian
[12] = system: SN12C renal
[13] = system: SNB-19 CNS
[14] = system: SR leukemia
[15] = system: T-47D breast

Structure (SMILES) | TGI [1] [µM] | TGI [2] [µM] | TGI [3] [µM] | TGI [4] [µM] | TGI [5] [µM] | TGI [6] [µM] | TGI [7] [µM] | TGI [8] [µM] | TGI [9] [µM] | TGI [10] [µM] | TGI [11] [µM] | TGI [12] [µM] | TGI [13] [µM] | TGI [14] [µM] | TGI [15] [µM]
CCN(CC)CCNc1ccc2nnn3c4ccc(O)cc4c(=O)c1c23 | 16 | 25.5 | 26.6 | 20.5 | 4.05 | 28.1 | 22.4 | 19.8 | 21.7 | 18.4 | 40.3 | 17.8 | 22.2 | 1.48 | 39.7
c1ccc2c(c1)CCc1[nH]c3c(c1-2)-c1ccccc1CC3 | > 100 | > 100 | > 100 | > 100 | > 100 | > 100 | > 100 | > 100 | > 100 | > 100 | > 100 | > 100 | > 100 | > 100 | > 100
Cc1ccc(S(=O)c2sccc2C=O)cc1 (stereo not given) | > 100 | 60.3 | 65.9 | 74.3 | 32.4 | 43.8 | > 100 | 76.2 | 82.4 | 41.7 | > 100 | 63.5 | > 100 | 84.2 | > 100
CCOC(=O)C(NC(=O)c1ccccc1)(Nc1ccc(Cl)cc1C(F)(F)F)C(F)(F)F (stereo not given) | 47.1 | 32.4 | > 100 | > 64.7 | > 100 | > 100 | > 100 | > 100 | > 100 | > 88.6 | > 100 | > 44.2 | > 100 | > 24 | > 45.6
COc1ccc2[nH]c3c(C)c4ccnc(NCCCN(C)CCCNc5ccc6ncn7c8ccccc8c(=O)c5c67)c4c(C)c3c2c1 | 15.2 | 3.99 | 25 | 1.32 | 0.606 | 2.61 | 5.2 | 4.56 | 17.3 | 0.379 | 6.8 | 3.38 | 3.42 | 1.61 | 9.46
O=C(CCCl)NNC1=NCCCN1 | > 100 | > 100 | > 100 | > 100 | > 100 | > 100 | > 100 | > 100 | > 100 | > 100 | > 100 | > 100 | > 100 | > 100 | > 100
CN(c1cn(C2CC[C@@H](CO)O2)c(=O)[nH]c1=O)C1CCCCC1 (stereo not given in full) | > 100 | > 100 | > 100 | > 100 | > 100 | > 100 | > 100 | > 100 | > 100 | > 100 | > 100 | > 100 | > 100 | > 100 | > 100
c1ccc2c(c1)NC1(N3CCCCC3)CCCCC21 (stereo not given) | 98 | > 100 | > 100 | > 100 | > 100 | > 100 | > 100 | > 100 | > 100 | > 100 | > 100 | > 100 | > 100 | > 100 | 78.1
CC(=O)C1=C(C)N(c2ccc(C)cc2)C2(O)C3=C(C(=O)c4ccccc4C3=O)C(O)=CC12Cl (stereo not given) | 10.3 | 45.9 | > 100 | 52.6 | > 100 | > 100 | 71.6 | > 100 | > 100 | > 100 | > 100 | 57.9 | 35.8 | > 100 | 69.1
Cc1cccc(-c2cc(=O)c3c(C)cc(C)nc3[nH]2)c1 | 29.3 | 30.2 | > 20.3 | > 100 | > 100 | > 100 | > 100 | > 52.1 | > 100 | 12.1 | > 100 | > 100 | > 100 | 9.3 | > 100
O=C(O)CCCc1ccc2ccccc2c1 | > 100 | > 100 | > 100 | > 100 | > 100 | > 100 | > 100 | > 100 | > 100 | > 100 | > 100 | > 100 | > 100 | > 100 | > 100
Nc1nc2c(ncn2Cc2ccccc2CO)c(=O)[nH]1 | > 100 | > 100 | > 100 | > 100 | > 100 | > 100 | > 100 | > 100 | > 100 | > 100 | > 100 | > 100 | > 100 | > 100 | > 100
CCOC1Oc2ccccc2-c2nc(SC)ncc21 (stereo not given) | > 100 | > 100 | > 100 | > 100 | > 100 | > 100 | > 100 | > 100 | > 100 | > 100 | > 100 | > 100 | > 100 | > 100 | > 100
O=C(c1ccc(Cl)cc1)N(C(=S)OCc1ccccn1)c1ccccc1 | > 100 | > 100 | > 100 | > 100 | > 100 | > 100 | > 100 | > 100 | > 100 | > 100 | > 100 | > 100 | > 100 | > 100 | 93.5
CCOC(=O)C(=O)/C(=C/N1C(=O)CC(=O)NC1=S)C(=O)OCC | > 100 | > 100 | > 100 | > 100 | > 100 | > 100 | > 100 | > 100 | > 100 | > 100 | > 100 | > 100 | > 100 | > 100 | > 100
OCCOc1ccccc2cccc1-2 | > 100 | > 100 | > 100 | > 100 | > 100 | > 100 | > 100 | > 100 | > 100 | > 100 | > 100 | > 100 | > 100 | > 100 | > 100
O=C1C=CC(=O)c2c1ccc1c3ccccc3n(-c3ccccc3[N+](=O)[O-])c21 | 35.6 | 14.6 | 36.4 | 4.9 | 4.76 | 20 | 37.5 | > 24.1 | 6.82 | > 65.2 | 33 | > 71.5 | 29.3 | > 100 | 5.19
O=C1C=C(OCCCCl)C(=O)c2c(O)ccc(O)c21 | 3.57 | 2.56 | 6.56 | 3.44 | 0.659 | 0.438 | 2.85 | 6.01 | 3.16 | 2.76 | 3.85 | 1.12 | 3.55 | 3.52 | 4.63
O=C(CSc1nc2ccc(I)cc2c(=O)n1Cc1ccccc1)NNC(=O)c1ccccc1 | 25.7 | 21.3 | 9.4 | 24.7 | > 100 | 23.2 | 40.5 | 28 | 20.8 | 8.11 | 44.9 | > 100 | 63.3 | 23.7 | 30.5
O=C1C=CC(=O)c2c1ccc1c3ccccc3n(Cc3cccc([N+](=O)[O-])c3)c21 | > 100 | > 69.7 | > 100 | 54.7 | > 100 | 65.6 | > 100 | > 55.8 | > 100 | > 80.6 | > 100 | 49.1 | > 100 | > 32.6 | 67.7
CCOc1cc2oc(C)cc(=O)c2c(OC)c1C=Nc1ccc(Cn2c(C)nc3ccccc32)cc1 | > 100 | > 100 | > 100 | > 100 | > 100 | > 100 | > 100 | > 100 | > 100 | > 100 | > 100 | > 100 | > 100 | > 100 | > 100
O=C(CNC(c1ccccc1)(c1ccccc1)c1ccccc1)NC1CCCCC1NC(=O)CNC(c1ccccc1)(c1ccccc1)c1ccccc1 (stereo not given) | > 100 | > 100 | > 100 | > 100 | > 100 | > 100 | > 100 | > 100 | > 100 | > 100 | > 100 | > 100 | > 100 | > 100 | > 100
